This is an account of results in US10596223B2, “JNK inhibitor molecules for treatment of various diseases” (Xigen Inflammation Ltd., priority 2011, dated 2020).

Square brackets hold non-standard residues; d marks the D form. Peptide text beside a SMILES is read from it.

Assay [1] deals with THP1-PMA-differentiated macrophages. The assay is described as follows: LPS-induced cytokine and chemokine release in PMA differentiated THP1 macrophages (ELISA). It is filed as cell-based, human. On the procedure: In the following the procedure will be set forth describing how the released amount of several human cytokines after ligand induced secretion from human cells (Blood, WBC, PBMC, purified primary lymphocytes, cell lines, . . . ) was measured.
The technique used is a Sandwich ELISA, which allows measuring the amount of antigen between two layers of antibodies (i.e. capture and detection antibody). The antigen to be measured must contain at least two antigenic sites capable of binding to antibody, since at least two antibodies act in the sandwich. Either monoclonal or polyclonal antibodies can be used as the capture and detection antibodies in Sandwich ELISA systems. Monoclonal antibodies recognize a single epitope that allows fine detection and quantification of small differences in antigen. A polyclonal is often used as the capture antibody to pull down as much of the antigen as possible.
The method may be used to determine the effect of the JNK inhibitors of the present invention in vitro/cell culture. At non toxic doses, compound efficacy is indicated by the decrease of the cytokine levels (the variation of optical density (absorbance at 450 nm)) as compared to non-treated samples and is monitored by ELISA. Results are express in ng/ml.
In the following the procedure will be set forth describing how cytokine production from human PMA differentiated THP1 cells challenged by LPS for 6 h was induced in order to test the ability of JNK inhibitors of the present invention, in particular of a JNK inhibitor with SEQ ID NO: 172, to reduce stimulation-induced cytokine release. THP1 cells were stimulated ex-vivo by different ligands for the readout of cytokine release. At non toxic doses, JNK inhibitor efficacy is indicated by the decrease of the cytokine levels as compared to non-treated samples and is monitored by ELISA. The toxicity of the compound are evaluated by the reduction of a tretazolium salt (MTS) to formazan, giving a purple colour.
a. Material • Cell Line: THP-1 (Ref TIB-202, ATCC, lot 57731475) • Culture medium, reagent and plates • RPMI (Ref 21875-091, Invitrogen) complemented with: • 10% FBS (Ref A15-151, PAA): decomplemented at 56° C., 30 min. • 10 mM Hepes (Ref H0887, Sigma) • 50 μM β-mercaptoethanol (Ref 63690, Fluka: stock at 14.3M): add 560 μl of 50 mM aliquots in PBS stocked at −20° C.) • 1 mM Sodium Pyruvate (Ref 58636, Sigma) • Penicilline (100 unit/ml)/Streptomycine (100 μg/ml) (Ref P4333, Sigma) • The RPMI medium is then filtrated with a […] (Ref SCGPU05RE, Millipore). • PBS 10× (Ref 70011, Invitrogen): diluted to 1× with sterile H2O • DMSO: Ref 41444, Fluka • PMA (phorbol 12-myristate 13-acetate, Ref P1585, Sigma, concentration 1 mM=616.8 ug/ml in DMSO at −20° C.). […]
For orientation: An ELISA detects its analyte on a solid surface through an enzyme-linked reagent.

Assay [2] relates to primary human T-cells. The assay can be described thus: IL2 secretion by primary human T-cells. It is filed as cell-based. The source says: The JNK inhibitors used are indicated by their SEQ ID NO: 172 and 197.
Assay [3] relates to established type II collagen arthritis in rats. It is filed as in vivo, rat. From the text: Rat collagen arthritis is an experimental model of polyarthritis that has been widely used for preclinical testing of numerous anti-arthritic agents that are either under preclinical or clinical investigation or are currently used as therapeutics in this disease. The hallmarks of this model are reliable onset and progression of robust, easily measurable polyarticular inflammation, marked cartilage destruction in association with pannus formation, and mild to moderate bone resorption and periosteal bone proliferation.
Intravenous (IV) efficacy of the JNK inhibitor of SEQ ID NO: 172 administered daily (QD) for 14 days (arthritis d1-14) for inhibition of the inflammation (paw swelling), cartilage destruction, and bone resorption that occurs in established type II collagen arthritis in rats was determined in said experimental model. […]
Female Lewis rats with established type II collagen arthritis were treated daily (QD) on arthritis days 1-14 by the intravenous (IV) route with vehicle (NaCl), SEQ ID NO: 172 (0.01, 0.1, 1, or 5 mg/kg), or the reference compound dexamethasone (Dex, 0.05 mg/kg). […] Efficacy evaluation was based on animal body weights, daily ankle caliper measurements, ankle diameter expressed as area under the curve (AUC), terminal hind paw weights, and histopathologic evaluation of ankles and knees of selected groups. […]

[4] abbreviates: THP1 differentiated macrophages, LPS 6 h (10 ng/ml).

For `CC(C)C[C@H](NC(=O)[C@H](CC(N)=O)NC(=O)[C@H](CC(C)C)NC(=O)[C@@H](NC(=O)[C@@H](C)NC(=O)[C@@H]1CCCN1C(=O)[C@H](CCCNC(=N)N)NC(=O)[C@@H](CCCCN)NC(=O)[C@@H]1CCCN1C(=O)[C@H](CCCNC(=N)N)NC(=O)[C@@H](CCCNC(=N)N)NC(=O)[C@H](CCCNC(=N)N)NC(=O)[C@H](CCCNC(=N)N)NC(=O)[C@H](CCC(N)=O)NC(=O)[C@@H](CCCNC(=N)N)NC(=O)[C@H](CCCNC(=N)N)NC(=O)[C@H](CCCCN)NC(=O)[C@H](CCCCN)NC(=O)[C@H](N)CCCNC(=N)N)[C@@H](C)O)C(=O)N[C@H](Cc1ccccc1)C(N)=O` [SEQ ID NO: 172, rKKRrQRRrRPkRPaTLNLf] (H-[dR]KKR[dR]QRR[dR]RP[dK]RP[dA]TLNL[dF]-NH2; N-terminus assumed), in assay [1] (PMA differentiated macrophages), the “LPS-induced TNFα release, potency comparison” value is “higher potency than D-TAT-IB1 (SEQ ID NO: 197) and L-TAT-IB1 (SEQ ID NO: 196)”. Moreover, in assay [1] (PMA differentiated macrophages, LPS 6 h), the “LPS-induced IL-6 release, potency comparison” value is “higher potency than D-TAT-IB1 (SEQ ID NO: 197) and L-TAT-IB1 (SEQ ID NO: 196)”. Besides, in assay [1] (setting [4]), the “LPS-induced IL6 release, potency comparison” value was “higher potency than D-TAT-IB1 (SEQ ID NO: 197), dTAT (SEQ ID NO: 45) and SP 600125”; the “LPS-induced TNFα release, potency comparison” value was “higher potency than D-TAT-IB1 (SEQ ID NO: 197), dTAT (SEQ ID NO: 4.5) and SP 600125”. In assay [2], the “IL2 secretion in response to CD3/CD28 stimulation” value is reported as “blocks IL2 secretion” and the “IL2 secretion in response to PMA/Ionomycin” value is listed as “blocks IL2 secretion”. Moreover, the “clinical and histopathology parameters (conclusion)” value in assay [3] (5 mg/kg IV QD 14 days) was “significant beneficial effect on the clinical and histopathology parameters”. In addition, the “daily ankle diameter measurements vs disease controls” value in assay [3] (5 mg/kg IV QD, p<0.05 days 4-12) is listed as “reduced toward normal”.
